According to US10035775B2, “Compositions for the treatment of fibrosis and fibrosis-related conditions” (VECTUS BIOSYSTEMS LIMITED, priority 2015, dated 2018):

Experiments:
[1] = system: bovine aortic endothelial cells; experiment: xCELLigence cellular impedance (cell index) in bovine aortic endothelial cells; assay type: cell-based; details: 62.5 μM, 125 μM or 250 μM, measured for 3 hours, FIG. 13
Description: The xCELLigence SP system (Roche) was used to measure changes in cellular impedance (cell index) following the treatment of bovine aortic endothelial cells (European Collection of Cell Cultures) with test compound. In this in vitro cell based experimental system a negative impedance profile correlates with blood pressure reduction in rats—a decrease in impedance is associated with vasodilatation and an increase in impedance is associated with vasoconstriction (Stallaert W, Dorn J F, van der Westhuizen E, Audet M & Bouvier M. Impedance responses reveal β-adrenergic signaling […] and allow classification of ligands with distinct signalling profiles PLoS ONE 2012; 7(1):e29420, doi:10.1371/journal.pone.0029420).
Briefly, 50 μl of cell culture medium (DMEM low glucose supplemented with 15% fetal bovine serum at 37° C.) was added to each well of an E-Plate 96 (Roche), and the background impedance in each well was measured. 50 μl of bovine aortic endothelial cell suspension (10,000 cells/well) was then added to the appropriate wells of the E-Plate 96. Cell index was monitored for each well of the E-Plate 96 in RTCA SP Station within the cell culture incubator. After overnight incubation for 16-20 hours at 5% CO2 and 95% humidity, 100 μl of test compound solution (test compounds were prepared in DMSO and diluted with cell culture medium to a concentration of 62.5 μM, 125 μM or 250 μM of test compound with a final DMSO concentration of 0.25%) was added to the appropriate wells of the E-Plate 96 and cell index values were measured immediately following compound treatment every 20 seconds for 3 hours. Cell index value is baseline-corrected by subtracting the cell index of vehicle-treated cells and normalized by dividing by the cell index at the time point immediately before compound addition. Baseline normalized cell index as a function of time is plotted using Roche RTCA software.

SHR [2] = experiment: Fat accumulation in the liver in SHR on high fat diet; assay type: in vivo, rat; details: 500 pmol/kg/min for 4 weeks, compared to 18 week controls, FIG. 20, p<0.05
Description: (§1) Fourteen week old SHR on a high fat diet (Glen Forrest Stockfeeders) were randomly assigned to test compound drinking solution (500 pmol/kg/min test compound in 10% ethanol in deionised distilled water) or control drinking solution (10% ethanol in deionised distilled water). After 4 weeks, rats were anaesthetised and blood samples were taken for analysis of plasma aminotransferase (AST) levels and livers were harvested. To quantitate tissue fibrosis and/or fat content, tissue slices≤3 mm thick were fixed in 10% buffered formalin for 24 hours, processed and embedded in paraffin. Three micron transverse sections were stained using Masson's trichrome stain. A minimum of 20 random fields at magnification×20 from transverse sections (5 at each of 2 levels) were digitized and the degree of fibrosis determined as a percent of field area of each digitized image using Image-Pro Plus V.7 (Media Cybernetics, Bethesda, Md., USA) then averaged to determine the level of fibrosis and/or fat content for each rat.

SHR [3] = experiment: Masson's tri-chrome stained sections of portal tracts (liver tissue architecture); assay type: in vivo, rat; details: treated rats versus control, FIG. 18
Description: as §1

SHR [4] = experiment: Plasma aminotransferase (AST) levels in SHR on high fat diet; assay type: in vivo, rat; details: 10% ethanol drinking solution, compared to controls, FIG. 21, p<0.025
Method: Fourteen week old SHR on a high fat diet (Glen Forrest Stockfeeders) were randomly assigned to test compound drinking solution (500 pmol/kg/min test compound in 10% ethanol in deionised distilled water) or control drinking solution (10% ethanol in deionised distilled water). After 4 weeks, rats were anaesthetised and blood samples were taken for analysis of plasma aminotransferase (AST) levels and livers were harvested. Plasma AST levels were measured using a RefloVET Plus (Roche) machine using consumable strips with magnetic assay identifiers recognized by the machine. A calibration standard was used in the machine prior to each use and the device was operated according to the manufacturer's instructions. Results are presented as international units per liter (IU/L).

SHR [5] = experiment: Hepatic fibrosis in SHR on high fat diet; assay type: in vivo, rat; details: 10% ethanol drinking solution, 500 pmol/kg/min for 6 weeks, compared to controls, FIG. 17
Method: as §1, with “After 4 weeks, rats were anaesthetised and blood samples were taken for analysis of plasma aminotransferase (AST) levels and livers were harvested.” left out

[6] = system: rat (NRK-52E) renal proximal tubule cells; experiment: Cisplatin induced cell death, rat renal proximal tubule cells (WST-8/CCK-8); assay type: cell-based; details: rat renal proximal tubular cells; cisplatin 12.5 μg/ml; 32 μM or 63 μM of compound; 24 hours; FIG. 14
Method: (§2) Human (HPCT-wt-05) and rat (NRK-52E) renal proximal tubule cells grown in (Keratinocyte Medium II+Keratinocyte Growth Supplement+5 ng/ml human recombinant epidermal growth factor+5% FBS+2 mM glutamine or DMEM+10% FBS+1% NEAA+2 mM glutamine respectively) were placed in 96 well plates at 10,000 cells/well and incubated at 37° C. with 5% CO2 overnight. Test compounds at concentrations of 32 μM or 63 μM were incubated with human or rat renal proximal tubule cells for 2 hours at 37° C. and 5% CO2. Cis-diamminedichloroplatinum[…] (cisplatin) was then added at a concentration of 5 μg/ml for human cells and 12.5 μg/ml for rat cells. Each cell population was then incubated for 24 hours at 37° C. with 5% CO2. Test compound A32 was maintained at its original concentrations. To assay the cytotoxic effects of cisplatin on the human and rat renal proximal tubule cells a highly water-soluble tetrazolium salt, WST-8, which is reduced by dehydrogenases in cells to produce formazan, a water-soluble, yellow-coloured indicator dye was used following the manufacturer's instructions (specifically the Cell Count Kit-8 (CCK-8) assay from Sigma). Plate absorbance of the WST-8 (CCK-8) reagent was then measured at 450 nm using a Thermo Scientific Multiskan EX plate reader.

SHR [7] = experiment: Myocardial fibrosis in SHR on 2.2% salt diet; assay type: in vivo, rat; details: 5% ethanol drinking solution, 500 pmol/kg/min for 4 weeks, compared to 14 and 18 week controls, FIG. 16
Description: (§3) Fourteen week old SHR on a 2.2% salt diet (Glen Forrest Stockfeeders) were randomly assigned to zero time control, test compound treatment (500 pmol/kg/min) in the drinking solution or control drinking solution (5% ethanol in deionised distilled water (n=5 each group). The rats assigned to zero time control group (14 weeks old rats) were anaesthetised and had their kidneys and heart harvested while rats assigned to control and test compound treatment were weighed twice weekly and had their drinking solution intake monitored to allow adjustment of the test compound concentration in the drinking solution to maintain a constant dose over the 4-week study period (18 weeks old rats). At the completion of the study period, rats were anaesthetised and had their kidneys and heart harvested. To quantitate tissue fibrosis and/or fat content, tissue slices≤3 mm thick were fixed in 10% buffered formalin for 24 hours, processed and embedded in paraffin. Three micron transverse sections were stained using Masson's trichrome stain. A minimum of 20 random fields at magnification×20 from transverse sections (5 at each of 2 levels) were digitized and the degree of fibrosis determined as a percent of field area of each digitized image using Image-Pro Plus V.7 (Media Cybernetics, Bethesda, Md., USA) then averaged to determine the level of fibrosis and/or fat content for each rat.

SHR [8] = experiment: Masson's tri-chrome stained sections of heart tissue (tissue architecture); assay type: in vivo, rat; details: treated rats versus control, FIG. 19
Description: as §3

[9] = system: Human (HPCT-wt-05) renal proximal tubule cells; experiment: Cisplatin induced cell death, human renal proximal tubule cells (WST-8/CCK-8); assay type: cell-based; details: human renal proximal tubular cells; cisplatin 5 μg/ml; 32 μM or 63 μM of compound; 24 hours; FIG. 14
Method: as §2

SHR [10] = experiment: Interstitial fibrosis in the kidney in SHR on 2.2% salt diet; assay type: in vivo, rat; details: 5% ethanol drinking solution, 500 pmol/kg/min for 4 weeks, compared to 18 week controls, FIG. 15
Description: as §3

OCc1cc(-c2ccccc2)ccc1-c1cccc(O)c1 [A81]
Cell impedance response (baseline normalized cell index) [1]: Negative impedance responses

NOCCc1cc(-c2ccccc2)ccc1-c1cccc(O)c1 [A56, 2′-[2-(Aminooxy)ethyl]-1,1′:4′,1″-terphenyl-3-ol]
Cell impedance response (baseline normalized cell index) [1]: Negative impedance responses | Fat in the liver (SHR [2]): reduced | Tissue architecture in portal tract sections (SHR [3]): normal tissue architecture has been restored

OCCc1cc(-c2ccccc2)ccc1-c1cccc(O)c1 [A56f, 2′-(2-Hydroxyethyl)-1,1′:4′,1″-terphenyl-3-ol]
Plasma AST levels (SHR [4]): decreased | Hepatic fibrosis (SHR [5]): decreased | Cell impedance response (baseline normalized cell index) [1]: Negative impedance responses | Tissue architecture in portal tract sections (SHR [3]): normal tissue architecture has been restored

O=C1CC(Cc2cc(-c3ccccc3)ccc2-c2cccc(O)c2)C(=O)N1 (stereo not drawn) [A30, 3-[(3-Hydroxy-1,1′:4′,1″-terphenyl-2′-yl)methyl]pyrrolidine-2,5-dione]
Cell impedance response (baseline normalized cell index) [1]: Negative impedance responses

O=C(O)Cc1cc(-c2ccccc2)ccc1-c1cccc(O)c1 [A56k, (3-Hydroxy-1,1′:4′,1″-terphenyl-2′-yl)acetic acid]
Cell impedance response (baseline normalized cell index) [1]: Negative impedance responses

O=C1NCC/C1=C\c1cc(-c2ccccc2)ccc1-c1cccc(O)c1 [A27]
Hepatic fibrosis (SHR [5]): decreased | Cell impedance response (baseline normalized cell index) [1]: Negative impedance responses | Fat in the liver (SHR [2]): reduced | Tissue architecture in portal tract sections (SHR [3]): normal tissue architecture has been restored

O=C1NCCC1Cc1cc(-c2ccccc2)ccc1-c1cccc(O)c1 (stereo not drawn) [A26]
Cell impedance response (baseline normalized cell index) [1]: Negative impedance responses

O=C1c2ccccc2C(=O)N1OCCc1cc(-c2ccccc2)ccc1-c1cccc(O)c1 [A56g, 2-[2-(3-Hydroxy-1,1′:4′,1″-terphenyl-2′-yl)ethoxy]-1H-isoindole-1,3(2H)-dione]
Cell impedance response (baseline normalized cell index) [1]: Negative impedance responses

NC(CCc1cc(-c2ccccc2)ccc1-c1cccc(O)c1)C(F)(F)F (stereo not drawn) [A6, 2′-(3-Amino-4,4,4-trifluorobutyl)-1,1′:4′,1″-terphenyl-3-ol]
Hepatic fibrosis (SHR [5]): decreased | Cell impedance response (baseline normalized cell index) [1]: Negative impedance responses | Tissue architecture in portal tract sections (SHR [3]): normal tissue architecture has been restored

O=C1NC(=O)C(Cc2cc(-c3ccccc3)ccc2-c2cccc(O)c2)N1 (stereo not drawn) [A32, 5-((3-Hydroxy-[1,1′:4′,1″-terphenyl]-2′-yl)methyl)imidazolidine-2,4-dione]
Plasma AST levels (SHR [4]): decreased | Cisplatin induced cell death [6]: decreased | Myocardial fibrosis (SHR [7]): decreased | Fibrous tissue and tissue architecture in heart sections (SHR [8]): minimal fibrous tissue is present and normal tissue architecture has been restored | Cisplatin induced cell death [9]: decreased | Hepatic fibrosis (SHR [5]): decreased | Cell impedance response (baseline normalized cell index) [1]: Negative impedance responses | Fat in the liver (SHR [2]): reduced | Fibrosis in the kidney (SHR [10]): decreased | Tissue architecture in portal tract sections (SHR [3]): normal tissue architecture has been restored

Nc1nocc1Cc1cc(-c2ccccc2)ccc1-c1cccc(O)c1 [A35]
Cell impedance response (baseline normalized cell index) [1]: Negative impedance responses
